Assay: xn = mol fraction of the nth substance listed
Conditions: 101 kPa, Liquid; for viscosity: Capillary tube (Ostwald / Ubbelohde) method; for excess molar volume: Direct dilatometry; for speed of sound: Linear variable-path acoustic interferometer

C=COC(C)=O [vinyl acetate] + Cc1ccc(C)cc1
Conditions | excess molar volume, 303.15 K [m3/mol] | excess molar volume, 308.15 K [m3/mol] | excess molar volume, 313.15 K [m3/mol] | speed of sound, 303.15 K [m/s] | speed of sound, 308.15 K [m/s] | speed of sound, 313.15 K [m/s] | viscosity, 303.15 K [mPa·s] | viscosity, 308.15 K [mPa·s] | viscosity, 313.15 K [mPa·s]
x2 = 0 | 0 | 0 | 0 | 1095.9 | 1072.5 | 1055.7 | 0.384 | 0.361 | 0.332
x2 = 0.0767 | -4.3e-08 | 2e-08 | 4.2e-08 | 1108.1 | 1084.9 | 1067.7 | 0.4 | 0.367 | 0.333
x2 = 0.1577 | -6.8e-08 | 3.8e-08 | 7.2e-08 | 1122.6 | 1098.2 | 1080.6 | 0.415 | 0.376 | 0.341
x2 = 0.2421 | -7.3e-08 | 5.7e-08 | 9.8e-08 | 1138.8 | 1112.3 | 1094.7 | 0.428 | 0.387 | 0.352
x2 = 0.3332 | -7.2e-08 | 7.3e-08 | 1.21e-07 | 1156.6 | 1128 | 1110.6 | 0.44 | 0.399 | 0.365
x2 = 0.43 | -6.1e-08 | 8.9e-08 | 1.41e-07 | 1175.5 | 1145.6 | 1128.6 | 0.453 | 0.414 | 0.38
x2 = 0.5319 | -5.1e-08 | 9.6e-08 | 1.48e-07 | 1195.4 | 1165.3 | 1148.8 | 0.469 | 0.432 | 0.399
x2 = 0.6371 | -2.7e-08 | 9.2e-08 | 1.4e-07 | 1215.8 | 1187.3 | 1171 | 0.489 | 0.453 | 0.422
x2 = 0.7488 | -4e-09 | 7.6e-08 | 1.13e-07 | 1237.4 | 1211.9 | 1196.4 | 0.512 | 0.478 | 0.447
x2 = 0.8654 | 6e-09 | 4.4e-08 | 7.2e-08 | 1259.7 | 1238.6 | 1224.5 | 0.538 | 0.504 | 0.475

Source: the NIST ThermoML archive (doi:10.1021/je050162g)
